Values of other authors as cited in patent US10912741B2, “Prevention of liver cancer with safranal-based formulations” (United Arab Emirates University, priority 2019, dated 2021).

System: HeLa cells
Conditions: reported in the background; cited from earlier work

| SMILES | growth of HeLa cells |
| --- | --- |
| CC(/C=C/C=C(\C)C(=O)O[C@@H]1O[C@H](CO[C@@H]2O[C@H](CO)[C@@H](O)[C@H](O)[C@H]2O)[C@@H](O)[C@H](O)[C@H]1O)=C\C=C\C=C(C)\C=C\C=C(/C)C(=O)O[C@@H]1O[C@H](CO[C@@H]2O[C@H](CO)[C@@H](O)[C@H](O)[C@H]2O)[C@@H](O)[C@H](O)[C@H]1O [crocin] | inhibit the growth of HeLa cells |
| CC1=C(C=O)C(C)(C)C[C@H](O[C@@H]2O[C@H](CO)[C@@H](O)[C@H](O)[C@H]2O)C1 [picrocrocin] | inhibit the growth of HeLa cells |
